The structures appear in SMILES notation. In brackets after ≈: the same amount, converted by molar mass.

The text below walks through data of PubChem BioAssay AID1996.

For the series the following is noted: buffer; pH 7.4; 200.0 µM.
As for `Cn1c(Cc2ccccc2)nnc1SCC(=O)NCCc1ccccc1`, the solubility (kinetic) is greater than 55 µg/mL.

`Cc1cc(C)c(Nc2ncnc(N)n2)c(C)c1`: the kinetic solubility was greater than 34.4 µg/mL. Consider `CNS(=O)(=O)c1cccc(C(=O)NCC2CCCCC2)c1`, for which the solubility (kinetic) was greater than 46.6 µg/mL.

The compound `COc1ccc(NC(=O)CN2C(=O)NC(C)(c3ccc4c(c3)OCO4)C2=O)cc1S(N)(=O)=O` (stereo not drawn) yielded a kinetic solubility of 66.9 µg/mL (≈ 140 µM).

The compound `Nc1nc2ccc(C(=O)Nc3ccc(N4CCOCC4)cc3)cc2s1` gave a solubility (kinetic) of 8.7 µg/mL (≈ 24.5 µM). For `COc1ccccc1NC(=O)/C(C#N)=C/c1cccn1C` the value was 0.6 µg/mL (≈ 2.13 µM); for `CCn1cc(CCCC(=O)NCc2ccc(OC)cc2)c2ccccc21`, 10.5 µg/mL (≈ 30 µM); for `COc1cccc2cc(C(=O)NCc3ccc(C)cc3)c(=N)oc12`, 3 µg/mL (≈ 9.31 µM). As to `CCN1CCN(C(=O)C(N)Cc2ccccc2)CC1` (stereo not drawn), the kinetic solubility worked out at 37.5 µg/mL (≈ 143 µM).

In turn, `O=C(NNC(=O)c1ccncc1)c1ccccc1` showed a kinetic solubility greater than 36.2 µg/mL.

`Nc1ncnc(Nc2ccccc2Cl)n1` gave a kinetic solubility of 32.8 µg/mL (≈ 148 µM). As for `CCN(C(=O)COc1ncnc2ccccc12)C1CCCCC1`, the figure is greater than 47 µg/mL; as for `O=C(NCc1cccc(C(F)(F)F)c1)c1ccc2c(c1)OCO2`, 34.8 µg/mL (≈ 108 µM); as for `Cc1ccc(NC(=O)CN(C)C(=O)c2ccc(Cl)c(S(=O)(=O)NCc3ccco3)c2)cc1`, 9 µg/mL (≈ 18.9 µM). `COc1ccc(C)cc1NC(=O)C(C)N1CCOCC1.Cl` (stereo not drawn) displayed a solubility (kinetic) greater than 47.2 µg/mL. For `Cc1cccc(CC(=O)NCC2CCCCC2)c1` the value was greater than 36.8 µg/mL; for `CCC1C(C#N)=C(SCC(N)=O)NC2=C1C(=O)CC(C)(C)C2` (stereo not drawn), 46.9 µg/mL (≈ 147 µM); for `O=C(Nc1ccc(F)cc1)c1cccnc1Oc1ccccc1`, 4.3 µg/mL (≈ 13.9 µM).

`Cc1cccc(C)c1NC(=O)C1CCN(C(=O)c2cccs2)CC1` registered a solubility (kinetic) of 39.1 µg/mL (≈ 114 µM). `Cc1ccc(NC(=O)CN2CCOCC2)cc1S(=O)(=O)N1CCCCC1` had a kinetic solubility greater than 57.2 µg/mL.

Compound `Cc1onc(-c2c(F)cccc2Cl)c1C(=O)NCc1ccccc1` came in with a solubility (kinetic) of 49.7 µg/mL (≈ 144 µM). The compound `O=C(COC(=O)c1cccnc1Cl)NCc1ccco1` showed a solubility (kinetic) greater than 44.2 µg/mL. For `Cc1nc2c(C)[n+](CC(=O)c3ccccc3)ccc2n1C.[Br-]` the value was greater than 54 µg/mL; for `COc1cccc(SCC(=O)N2CCN(c3ccccc3)CC2)c1`, 34.2 µg/mL (≈ 99.9 µM). As for `CC(C)Oc1ccc(CCN=C(N)N=C(N)N)cc1Cl.Cl`, the figure is greater than 50.1 µg/mL; as for `O=C(O)/C=C/C(=O)Nc1ccc(Oc2ccccc2)cc1`, greater than 42.5 µg/mL.

Consider `Cc1cccc(NC(=O)c2ccco2)c1C`, for which the kinetic solubility was 31.8 µg/mL (≈ 148 µM). As for `O=C1c2ccccc2C(=O)N1C1CCCCC1`, the figure is 1.3 µg/mL (≈ 5.67 µM). For `COC(=O)c1ccc(NC(=O)c2cc[n+]([O-])cc2)cc1` the value was greater than 40.8 µg/mL; for `CCOC(=O)c1c[nH]c(=S)n1C`, greater than 27.9 µg/mL. On to `CS(=O)(=O)c1ccccc1C(=O)Nc1ccc(S(=O)(=O)N2CCCC2)cc1`, for which the kinetic solubility was greater than 61.3 µg/mL. `O=C(c1ccc(Cl)cc1[N+](=O)[O-])N1CCOCC1` registered a solubility (kinetic) of 40.2 µg/mL (≈ 149 µM). The compound `CCOc1ccccc1NC(=O)c1cnccn1` yielded a kinetic solubility greater than 36.5 µg/mL. As for `C[C@@H]1NC(=O)/C(=C\c2ccccc2Cl)NC1=O`, the figure is 12.8 µg/mL (≈ 51.1 µM); as for `CCn1cc(C(c2ccccc2)C(C(C)=O)[N+](=O)[O-])c2ccccc21` (stereo not drawn), 4.8 µg/mL (≈ 14.3 µM). On to `Cc1cccc(OCC(=O)NCCNC(=O)c2cnccn2)c1`, for which the kinetic solubility turned out to be 46.5 µg/mL (≈ 148 µM). With `C=Cn1ccnc1P(O)(=S)c1nc(C)c(CCOC(C)=O)s1` (stereo not drawn), the solubility (kinetic) stood at 43.1 µg/mL (≈ 121 µM). Compound `CC(NC(=O)COC(=O)c1ccc2c(c1)OCO2)c1ccccc1` (stereo not drawn) gave a kinetic solubility of 14.9 µg/mL (≈ 45.5 µM). In turn, `COc1cccc2cc(/C(=N/O)c3ccccc3)oc12` registered a kinetic solubility of less than 0.6 µg/mL. As for `O=C(NCC(O)c1ccc([N+](=O)[O-])cc1)C1CCCCC1` (stereo not drawn), the figure is 28.4 µg/mL (≈ 97.1 µM); as for `Cc1cccn2cc(-c3ccc(Cl)cc3)nc12`, 2.7 µg/mL (≈ 11.1 µM); as for `CCOC(=O)c1c(C)[nH]c(C)c1C(=O)COC(=O)c1ccc(O)cc1`, greater than 51.8 µg/mL. For `NC(=S)Nc1c(Cl)cccc1Cl`, the kinetic solubility was greater than 33.2 µg/mL. Regarding `Cn1c(=O)c2c(nc(NN=C3CCCC3)n2C)n(C)c1=O`, the solubility (kinetic) is greater than 43.5 µg/mL. For `O=C1NC(=O)/C(=C/c2cccc3ccccc23)S1` the value was greater than 38.3 µg/mL; for `CC(OC(=O)c1cc2ccccc2[nH]1)C(=O)N(C)c1ccccc1` (stereo not drawn), 3.8 µg/mL (≈ 11.8 µM); for `COc1ccccc1CNc1ncnc2cc(OC)c(OC)cc12`, 13 µg/mL (≈ 40 µM). In turn, `O=C(NCc1ccccc1Cl)C1CCN(c2cnccn2)CC1` showed a kinetic solubility greater than 49.6 µg/mL.

`CCc1nc2cccnc2n1-c1ccc(CC(=O)NC(C)CC)cc1` (stereo not drawn) came in with a solubility (kinetic) greater than 50.5 µg/mL. In turn, `O=C(NNC(=S)NC(=O)c1ccccc1)c1cccnc1` gave a solubility (kinetic) greater than 45.1 µg/mL. `CC1CCN(C(=O)CNC(=O)c2cccc(OC(F)F)c2)CC1` came in with a kinetic solubility greater than 49 µg/mL.

As to `O=C(OCC(=O)N1CCCC1)c1ccccc1O`, the solubility (kinetic) was 36.1 µg/mL (≈ 145 µM). For the compound `CC(NC(=O)c1cc(Br)ccc1Cl)c1ccccc1` (stereo not drawn), the solubility (kinetic) amounted to 3.8 µg/mL (≈ 11.2 µM).

As usually defined, the solubility (kinetic) is the concentration staying in solution when a stock, usually in DMSO, is diluted into the medium.
